Results taken from article PMC3701070 (PLoS ONE, 2013).

Experiments:
Experiment in all cases: Cell growth assay
Type in all cases: cell-based
CAL-62 = settings: Homo sapiens, 72 h; CAL-62, RAF WT, RAS WT, 3-day; read-out: gIC50
Method: (§1) Growth was measured with CellTiter-Glo® (Promega) reagent per the manufacturer’s protocol, using a PerkinElmer EnVision™ reader at t = 0 and 72 h. IC50 values for cell growth inhibition (gIC50) were determined.
(§2) (PDF) Click here for additional data file.

ACHN = settings: Homo sapiens, 72 h, RAF WT, RAS WT, 3-day, read-out: gIC50
Method: as §1, §2

HMCB = settings: Homo sapiens, 72 h, RAF WT, RAS WT, 3-day, read-out: gIC50
Method: as §1, §2

SNB-19 = settings: Homo sapiens, 72 h; SNB-19, RAF WT, RAS WT, 3-day; read-out: gIC50
Method: as §1, §2

SW872 = settings: Homo sapiens, 72 h; SW872, BRAF(V600E), RAS WT, 3-day; read-out: gIC50
Method: as §1, §2

NCI-H520 = settings: Homo sapiens, 72 h; NCI-H520, RAF WT, RAS WT, 3-day; read-out: gIC50
Method: as §1, §2

HN5 = settings: Homo sapiens, 72 h; HN5, RAF WT, RAS WT, 3-day; read-out: gIC50
Method: as §1, §2

H4 = settings: Homo sapiens, 72 h; H4, RAF WT, RAS WT, 3-day; read-out: gIC50
Method: as §1, §2

OE-33 = settings: Homo sapiens, OE33, 72 h; OE-33, RAF WT, RAS WT, 3-day; read-out: gIC50
Method: as §1, §2

NCI-H2228 = settings: Homo sapiens, 72 h; NCI-H2228, RAF WT, RAS WT, 3-day; read-out: gIC50
Method: as §1, §2

HT-29 = settings: Homo sapiens, 72 h; HT-29, BRAF(V600E), RAS WT, 3-day; read-out: gIC50
Method: as §1, §2

SW900 = settings: Homo sapiens, 72 h; SW900, RAF WT, RAS WT, 3-day; read-out: gIC50
Method: as §1, §2

SF-268 = settings: Homo sapiens, 72 h; SF-268, RAF WT, RAS WT, 3-day; read-out: gIC50
Method: as §1, §2

SK-MES-1 = settings: Homo sapiens, 72 h; SK-MES-1, RAF WT, RAS WT, 3-day; read-out: gIC50
Method: as §1, §2

Hep3B = settings: Homo sapiens, 72 h, RAF WT, RAS WT, 3-day, read-out: gIC50
Method: as §1, §2

GDM-1 = settings: Homo sapiens, 72 h; GDM-1, RAF WT, RAS WT, 3-day; read-out: gIC50
Method: as §1, §2

MDA-MB-231 = settings: Homo sapiens, 72 h; MDA-MB-231, BRAF(G464V), KRAS(G13D), 3-day; read-out: gIC50
Method: as §1, §2

SCC-12 = settings: Homo sapiens, SCC12, 72 h; SCC-12, RAF WT, RAS WT, 3-day; read-out: gIC50
Method: as §1, §2

ST486 = settings: Homo sapiens, 72 h; ST486, RAF WT, RAS WT, 3-day; read-out: gIC50
Method: as §1, §2

UACC-62 = settings: Homo sapiens, 72 h; UACC-62, BRAF(V600E), RAS WT, 3-day; read-out: gIC50
Method: as §1, §2

MC-IXC = settings: Homo sapiens, 72 h, RAF WT, RAS WT, 3-day, read-out: gIC50
Method: as §1, §2

DU-145 = settings: Homo sapiens, 72 h; DU-145, RAF WT, RAS WT, 3-day; read-out: gIC50
Method: as §1, §2

CaOV3 = settings: Homo sapiens, Caov-3, 72 h; CaOV3, RAF WT, RAS WT, 3-day; read-out: gIC50
Method: as §1, §2

SCC-13 = settings: Homo sapiens, 72 h; SCC-13, RAF WT, RAS WT, 3-day; read-out: gIC50
Method: as §1, §2

LS1034 = settings: Homo sapiens, LS-1034, 72 h; LS1034, RAF WT, KRAS(A146T), 3-day; read-out: gIC50
Method: as §1, §2

22Rv1 = settings: Homo sapiens, 72 h; 22Rv1, RAF WT, RAS WT, 3-day; read-out: gIC50
Method: as §1, §2

OE-19 = settings: Homo sapiens, OE19, 72 h; OE-19, RAF WT, RAS WT, 3-day; read-out: gIC50
Method: as §1, §2

U251 = settings: Homo sapiens, U-251, 72 h; U251, RAF WT, RAS WT, 3-day; read-out: gIC50
Method: as §1, §2

C32TG = settings: Homo sapiens, 72 h, BRAF(V600E), RAS WT, 3-day, read-out: gIC50
Method: as §1, §2

OE-21 = settings: Homo sapiens, OE21, 72 h; OE-21, RAF WT, RAS WT, 3-day; read-out: gIC50
Method: as §1, §2

SF-295 = settings: Homo sapiens, 72 h; SF-295, RAF WT, RAS WT, 3-day; read-out: gIC50
Method: as §1, §2

SN12C = settings: Homo sapiens, 72 h, RAF WT, RAS WT, 3-day, read-out: gIC50
Method: as §1, §2

RL = settings: Homo sapiens, 72 h, RAF WT, RAS WT, 3-day, read-out: gIC50
Method: as §1, §2

CC(C)(C)c1nc(-c2cccc(NS(=O)(=O)c3c(F)cccc3F)c2F)c(-c2ccnc(N)n2)s1 [dabrafenib]
IC50 (CAL-62): > 10 µM
IC50 (ACHN): 0.294 µM
IC50 (HMCB): > 10 µM
IC50 (SNB-19): > 10 µM
IC50 (SW872): 0.377 µM
IC50 (NCI-H520): > 10 µM
IC50 (HN5): > 10 µM
IC50 (H4): 0.619 µM
IC50 (OE-33): > 10 µM
IC50 (NCI-H2228): > 10 µM
IC50 (HT-29): 0.066 µM
IC50 (SW900): > 10 µM
IC50 (SF-268): > 10 µM
IC50 (SK-MES-1): 0.329 µM
IC50 (Hep3B): > 10 µM
IC50 (GDM-1): 2 µM
IC50 (MDA-MB-231): > 10 µM
IC50 (SCC-12): > 10 µM
IC50 (ST486): > 10 µM
IC50 (UACC-62): 0.001 µM
IC50 (MC-IXC): > 10 µM
IC50 (DU-145): > 10 µM
IC50 (CaOV3): > 10 µM
IC50 (SCC-13): > 10 µM
IC50 (LS1034): > 10 µM
IC50 (22Rv1): > 10 µM
IC50 (OE-19): > 10 µM
IC50 (U251): > 10 µM
IC50 (C32TG): 0.001 µM
IC50 (OE-21): > 10 µM
IC50 (SF-295): > 10 µM
IC50 (SN12C): > 10 µM
IC50 (RL): > 10 µM
